According to patent publication US20060069132A1, “Azolecarboxamide herbicides” (priority 2004, published 2006):

What was measured:
Surinam grass = assay: Test C pre-/postemergence herbicide test; format: in vivo, Urochloa decumbens; details: preemergence; for Plant response rating (0 = no effect, 100 = complete control), Surinam Grass: 125 g ai/ha
Procedure, shortened: (§1)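 Visual ratings on a 0–100 scale (100 = complete control) made versus untreated controls after 12 to 14 greenhouse days. Test chemicals, formulated in surfactant-containing non-phytotoxic solvent, applied preemergence to planted seeds or postemergence to 1- to 4-leaf plants (2 to 18 cm).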

cocklebur = assay: Test C pre-/postemergence herbicide test; format: in vivo, Xanthium strumarium; details: preemergence; for Plant response rating (0 = no effect, 100 = complete control), Cocklebur: 125 g ai/ha
Procedure, shortened: as §1

giant foxtail = assay: Test C pre-/postemergence herbicide test; format: in vivo, Setaria faberi; details: preemergence; for Plant response rating (0 = no effect, 100 = complete control), Foxtail, Giant: 125 g ai/ha
Procedure, shortened: as §1

johnsongrass = assay: Test C pre-/postemergence herbicide test; format: in vivo, Sorghum halepense; details: preemergence; for Plant response rating (0 = no effect, 100 = complete control), Johnsongrass: 125 g ai/ha
Procedure, shortened: as §1

morningglory = assay: Test C pre-/postemergence herbicide test; format: in vivo, Ipomoea coccinea; design: key to Plant response rating, Morningglory: 0 = no effect, 100 = complete control; details: preemergence; for Plant response rating (0 = no effect, 100 = complete control), Morningglory: 125 g ai/ha
Procedure, shortened: as §1

eastern black nightshade = assay: Test C pre-/postemergence herbicide test; format: in vivo, Solanum ptycanthum; details: preemergence; for Plant response rating (0 = no effect, 100 = complete control), Nightshade: 125 g ai/ha
Procedure, shortened: as §1

yellow nutsedge = assay: Test C pre-/postemergence herbicide test; format: in vivo, Cyperus esculentus; details: preemergence; for Plant response rating (0 = no effect, 100 = complete control), Nutsedge, Yellow: 125 g ai/ha
Procedure, shortened: as §1

ducksalad = assay: Test C flooded paddy test; format: in vivo, Heteranthera limosa; details: for Plant response rating, Ducksalad: 500 g ai/ha, visual rating after 12 to 14 days
barnyardgrass = assay: Test C flooded paddy test; format: in vivo, Echinochloa crus-galli; details: for Plant response rating, Barnyardgrass: 500 g ai/ha, visual rating after 12 to 14 days
Procedure, shortened: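 Visual rating, 0 (no effect) to 100 (complete control), vs. controls at 12–14 d in greenhouse. Postemergence: 1–4-leaf plants, 2–18 cm. Paddy: flooded, barnyardgrass at 2-leaf stage.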

[1] = 500 g ai/ha, scale 0 to 100 (0 no effect, 100 complete control), visual, 12 to 14 days
[2] = 125 g ai/ha, scale 0 to 100 (0 no effect, 100 complete control)
[3] = 250 g ai/ha, scale of 0 to 100, 0 is no effect, 100 is complete control
[4] = scale 0 to 100 (0 no effect, 100 complete control)
[5] = 62 g ai/ha, scale 0 to 100 (0 no effect, 100 complete control)

Structure (SMILES): CCc1nn(C(C)(C)CC)nc1C(=O)Nc1cccc(C(=O)N(C)C)c1 [Compound 372]
- Plant response rating, Surinam Grass (Surinam grass; 62 g ai/ha, scale 0 to 100): 50
- Plant response rating (0 = no effect, 100 = complete control), Surinam Grass (Surinam grass): 85
- Plant response rating, Surinam Grass (Surinam grass; 250 g ai/ha, scale 0-100): 85
- Plant response rating, Surinam Grass (Surinam grass; [1]): 100
- Plant response rating, Cocklebur (cocklebur; 62 g ai/ha, scale 0 to 100): 0
- Plant response rating (0 = no effect, 100 = complete control), Cocklebur (cocklebur): 10
- Plant response rating, Cocklebur (cocklebur; 250 g ai/ha, scale 0-100): 60
- Plant response rating, Cocklebur (cocklebur; [1]): 90
- Plant response rating, Foxtail, Giant (giant foxtail; 62 g ai/ha, scale 0 to 100): 70
- Plant response rating (0 = no effect, 100 = complete control), Foxtail, Giant (giant foxtail): 85
- Plant response rating, Foxtail, Giant (giant foxtail; 250 g ai/ha, scale 0-100): 90
- Plant response rating, Foxtail, Giant (giant foxtail; [1]): 90
- Plant response rating, Johnsongrass (johnsongrass; 62 g ai/ha, scale 0 to 100): 80
- Plant response rating (0 = no effect, 100 = complete control), Johnsongrass (johnsongrass): 80
- Plant response rating, Johnsongrass (johnsongrass; 250 g ai/ha, scale 0-100): 90
- Plant response rating, Johnsongrass (johnsongrass; [1]): 90
- Plant response rating, Morningglory (morningglory; 62 g ai/ha, scale 0 to 100): 0
- Plant response rating (0 = no effect, 100 = complete control), Morningglory (morningglory): 5
- Plant response rating, Morningglory (morningglory; 250 g ai/ha, scale 0-100): 40
- Plant response rating, Morningglory (morningglory; [1]): 80
- Plant response rating, Nightshade (eastern black nightshade; 62 g ai/ha, scale 0 to 100): 85
- Plant response rating (0 = no effect, 100 = complete control), Nightshade (eastern black nightshade): 95
- Plant response rating, Nightshade (eastern black nightshade; 250 g ai/ha, scale 0-100): 100
- Plant response rating, Nightshade (eastern black nightshade; [1]): 100
- Plant response rating, Nutsedge, Yellow (yellow nutsedge; 62 g ai/ha, scale 0 to 100): 5
- Plant response rating (0 = no effect, 100 = complete control), Nutsedge, Yellow (yellow nutsedge): 30
- Plant response rating, Nutsedge, Yellow (yellow nutsedge; 250 g ai/ha, scale 0-100): 40
- Plant response rating, Nutsedge, Yellow (yellow nutsedge; [1]): 85
- Ducksalad plant response rating (ducksalad; 62 g ai/ha, scale 0 to 100): 65
- Ducksalad plant response rating (ducksalad; [2]): 85
- Ducksalad plant response rating (ducksalad; [3]): 85
- Plant response rating, Ducksalad (ducksalad; [4]): 85
- Barnyardgrass plant response rating (barnyardgrass; [5]): 65
- Barnyardgrass plant response rating (barnyardgrass; [2]): 70
- Barnyardgrass plant response rating (barnyardgrass; [3]): 75
- Plant response rating, Barnyardgrass (barnyardgrass; [4]): 80

Structure (SMILES): CCNC(=O)c1cccc(NC(=O)c2nn(C(C)(C)CC)nc2CC)c1 [Compound 376]
- Plant response rating, Surinam Grass (Surinam grass; 62 g ai/ha, scale 0 to 100): 40
- Plant response rating (0 = no effect, 100 = complete control), Surinam Grass (Surinam grass): 60
- Plant response rating, Surinam Grass (Surinam grass; 250 g ai/ha, scale 0-100): 90
- Plant response rating, Surinam Grass (Surinam grass; [1]): 100
- Plant response rating, Cocklebur (cocklebur; 62 g ai/ha, scale 0 to 100): 0
- Plant response rating (0 = no effect, 100 = complete control), Cocklebur (cocklebur): 0
- Plant response rating, Cocklebur (cocklebur; 250 g ai/ha, scale 0-100): 0
- Plant response rating, Cocklebur (cocklebur; [1]): 5
- Plant response rating, Foxtail, Giant (giant foxtail; 62 g ai/ha, scale 0 to 100): 10
- Plant response rating (0 = no effect, 100 = complete control), Foxtail, Giant (giant foxtail): 85
- Plant response rating, Foxtail, Giant (giant foxtail; 250 g ai/ha, scale 0-100): 95
- Plant response rating, Foxtail, Giant (giant foxtail; [1]): 100
- Plant response rating, Johnsongrass (johnsongrass; 62 g ai/ha, scale 0 to 100): 60
- Plant response rating (0 = no effect, 100 = complete control), Johnsongrass (johnsongrass): 80
- Plant response rating, Johnsongrass (johnsongrass; 250 g ai/ha, scale 0-100): 100
- Plant response rating, Johnsongrass (johnsongrass; [1]): 100
- Plant response rating, Morningglory (morningglory; 62 g ai/ha, scale 0 to 100): 0
- Plant response rating (0 = no effect, 100 = complete control), Morningglory (morningglory): 0
- Plant response rating, Morningglory (morningglory; 250 g ai/ha, scale 0-100): 5
- Plant response rating, Morningglory (morningglory; [1]): 5
- Plant response rating, Nightshade (eastern black nightshade; 62 g ai/ha, scale 0 to 100): 95
- Plant response rating (0 = no effect, 100 = complete control), Nightshade (eastern black nightshade): 100
- Plant response rating, Nightshade (eastern black nightshade; 250 g ai/ha, scale 0-100): 100
- Plant response rating, Nightshade (eastern black nightshade; [1]): 100
- Plant response rating, Nutsedge, Yellow (yellow nutsedge; 62 g ai/ha, scale 0 to 100): 5
- Plant response rating (0 = no effect, 100 = complete control), Nutsedge, Yellow (yellow nutsedge): 30
- Plant response rating, Nutsedge, Yellow (yellow nutsedge; 250 g ai/ha, scale 0-100): 40
- Plant response rating, Nutsedge, Yellow (yellow nutsedge; [1]): 60
- Ducksalad plant response rating (ducksalad; 62 g ai/ha, scale 0 to 100): 25
- Ducksalad plant response rating (ducksalad; [2]): 85
- Ducksalad plant response rating (ducksalad; [3]): 85
- Plant response rating, Ducksalad (ducksalad; [4]): 85
- Barnyardgrass plant response rating (barnyardgrass; [5]): 45
- Barnyardgrass plant response rating (barnyardgrass; [2]): 65
- Barnyardgrass plant response rating (barnyardgrass; [3]): 70
- Plant response rating, Barnyardgrass (barnyardgrass; [4]): 75
